In experiment [1] the target is T1, interaction between KRS and laminin receptor (67LR) (Homo sapiens, UniProt Q15046).
T1 construct: expressed in transfected cells; host or cells: yeast EGY/SH cells
The experiment can be described thus: Yeast two hybrid growth assay, LexA-KRS/B42-LR pair. Conditions: growth inhibition of yeast EGY/SH cells with LexA-KRS/B42-LR vs control, 1 μl of 10 mg/ml compound per well, 6 days, absorbance 540 nm; for inhibition at 10000 µg/mL (stock): read-out: Inhibition rate(%). The format is cell-based. As to the method: On the compound of the present invention obtained by screening a library of compounds, the extent of inhibition on the interaction between KRS and laminin receptor (67LR) was determined by a yeast two hybrid assay, as described below. KRS, LR, AIMP2, AIMP3 and MRS were cloned at LexA vector (clontech) and B42 vector (clontech) each so as to produce required vectors. From among the vectors, LexA-KRS vector and B42-LR vector were co-transformed into yeast EGY/SH cells, and then the yeast cells were diluted to an absorbance (540 nm wavelength) of 0.2 in galactose medium not containing uracil (Ura), histidine (His), tryptophane (Trp) and leucine (Leu), and placed in an amount of 200 u in a 96 well plate. 1 μl of each compound at a concentration of 10 mg/ml was placed in each well, incubated for 6 days, and the absorbance was measured at 540 nm. […] The inhibitory specificity of the selected compound was tested by using two different interaction pairs such as LexA-KRS/B42-AIMP2 and LexA-MRS/B42-AIMP3.
In order to determine if the compound of the present invention controls the interaction between KRS and laminin receptor, the present inventors determined the interaction between KRS and 67LR through treatment of the compound of the present invention.

Another experiment has as its system A549 cells. As to the kind of experiment: Laminin-dependent membrane translocation of KRS and 67LR with kinase inhibitors. The format is cell-based, human. Conditions: inhibitor 3 hours then laminin 1 hour. As to the method:
(§1) In FIG. 7, A549 cells were treated with laminin (10 μg/ml), and the levels of 67LR, 37LRP and KRS were determined by western blotting at the indicated times. Hsp90 and cadherin (Cad) were used as markers for cytoplasm and membrane, respectively. In FIG. 8, A549 cells untreated or treated with laminin for 1 hour were subjected to immunofluorescence staining with anti-67LR (MLuC5, Santacruz, sc-59732) (red) and KRS antibodies (green). In FIG. 9, A549 cells were treated with U73122 (U), staurosporin (ST) and LY294002 (LY) that inhibit PLC-gamma, PKC and PI3K, respectively, for 3 hours, and then treated with laminin for 1 hour. Then, it was determined how these kinase inhibitors would affect the cytoplasm and membrane of 67LR and KRS. In FIG. 10, A549 cells were transfected with Myc-KRS, and incubated for 24 hours. Then, the cells were treated with the indicated drugs and then with laminin as above. Myc-KRS was immunoprecipitated, and immunoblotted with anti-p-Thr, -Ser, and -Tyr antibodies. In FIG. 11, A549 cells were transfected with Myc-KRS, and cultured for 24 hours. […] Myc-KRS was immunoprecipitated, and co-precipitation of 67LR was determined by western blotting. […] EPRS (glutamyl-prolyl-tRNA synthetase) was immunoprecipitated with its specific antibody (AbCam), and co-precipitation of KRS was determined by western blotting (upper). […]

Another experiment concerns KRS. The experiment can be described thus: Laminin-induced phosphorylation of KRS (immunoblot p-Thr, -Ser, -Tyr). The format is cell-based, human. As to conditions: A549 cells transfected with Myc-KRS, inhibitor then laminin. As to the method: as §1
(A western blot detects proteins with antibodies after separation by electrophoresis.)

T1 sequence (Q15046 whole entry): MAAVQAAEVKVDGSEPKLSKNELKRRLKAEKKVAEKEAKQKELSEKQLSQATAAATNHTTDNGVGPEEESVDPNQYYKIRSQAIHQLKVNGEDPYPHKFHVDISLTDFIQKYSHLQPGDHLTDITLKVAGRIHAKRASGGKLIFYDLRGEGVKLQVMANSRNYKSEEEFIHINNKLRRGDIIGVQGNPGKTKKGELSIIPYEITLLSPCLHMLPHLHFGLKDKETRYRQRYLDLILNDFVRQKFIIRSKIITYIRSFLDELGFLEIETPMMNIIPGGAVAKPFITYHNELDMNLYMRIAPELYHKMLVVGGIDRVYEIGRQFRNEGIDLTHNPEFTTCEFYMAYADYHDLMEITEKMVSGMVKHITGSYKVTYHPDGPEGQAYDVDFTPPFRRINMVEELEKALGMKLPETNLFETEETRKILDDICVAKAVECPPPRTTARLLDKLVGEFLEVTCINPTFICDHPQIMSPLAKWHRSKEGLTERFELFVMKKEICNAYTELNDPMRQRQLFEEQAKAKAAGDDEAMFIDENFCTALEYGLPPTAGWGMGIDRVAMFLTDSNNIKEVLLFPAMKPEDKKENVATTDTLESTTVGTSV

By inhibition is commonly meant how much of the control response was suppressed. As to `COc1ccc2nc(NC(=O)c3ccccc3)oc2c1` [Compound of formula 2, N-(6-Methoxy-benzooxazol-2-yl)-benzamide], in experiment [1], the inhibition at 10000 µg/mL (stock) was determined as 54.2%.

Take `COc1ccc2oc(NC(=O)c3ccccc3)nc2c1` [Compound of formula 3, N-(5-Methoxy-benzooxazol-2-yl)-benzamide]: the “Inhibition rate(%)” value in experiment [1] is listed as 59.98%.

`Clc1ccc2oc(Nc3ccccc3)nc2c1` [Compound of formula 4, (5-Chloro-benzooxazol-2-yl)-phenyl-amine]: the inhibition at 10000 µg/mL (stock) in experiment [1] turned out to be 51.8%.

Regarding `CCc1ccc(Nc2nc3cc(Cl)ccc3o2)cc1` [Compound of formula 5, (5-Chloro-benzooxazol-2-yl)-(4-ethyl-phenyl)-amine], the inhibition at 10000 µg/mL (stock) in experiment [1] is 47.5%.

Regarding `Clc1ccc2oc(Nc3ccc(Cl)c(Cl)c3)nc2c1` [Compound of formula 6, (5-Chloro-benzooxazol-2-yl)-(3,4-dichloro-phenyl)-amine], in experiment [1], the inhibition at 10000 µg/mL (stock) was 52.8%.

Turning to `O=[N+]([O-])c1ccc2oc(Nc3ccc(/N=N/c4ccccc4)cc3)nc2c1` [Compound of formula 7, (5-Nitro-benzooxazol-2-yl)-(4-phenylazo-phenyl)-amine], in experiment [1], the inhibition at 10000 µg/mL (stock) amounted to 47.6%.

`O=C(Nc1nc2ccccc2o1)c1ccccc1` [Compound of formula 8, N-Benzooxazol-2-yl-benzamide]: the inhibition at 10000 µg/mL (stock) in experiment [1] came to 47.3%.

Turning to `O=C(Nc1nc2cc([N+](=O)[O-])ccc2o1)c1ccccc1` [Compound of formula 9, N-(5-Nitro-benzooxazol-2-yl)-benzamide], in experiment [1], the inhibition at 10000 µg/mL (stock) came out at 36.9%.

As to `COc1ccc2oc(NC(=O)c3ccccc3)nc2c1` [Compound of formula 10, N-(5-Methoxy-benzooxazol-2-yl)-benzamide], the inhibition at 10000 µg/mL (stock) in experiment [1] amounted to 60%.

Consider `Cc1ccc2oc(NC(=O)c3ccccc3)nc2c1` [Compound of formula 11, N-(5-Methyl-benzooxazol-2-yl)-benzamide], for which the inhibition at 10000 µg/mL (stock) in experiment [1] amounted to 49.1%.

For `O=C(Nc1nc2ccc([N+](=O)[O-])cc2s1)c1ccc(C(F)(F)F)cc1` [Compound of formula 12, N-(6-Nitro-benzothiazol-2-yl)-4-trifluoromethyl-benzamide], the inhibition at 10000 µg/mL (stock) in experiment [1] amounted to 52.5%.

Regarding `Cc1ccc2oc(-c3ccccc3OCC(=O)O)nc2c1` [Compound of formula 13, [2-(5-Methyl-benzooxazol-2-yl)-phenoxy]-acetic acid], in experiment [1], the inhibition at 10000 µg/mL (stock) is 55.2%.

As to `Cc1cc(C)c(-c2nc3cc(N)ccc3o2)c(C)c1` [Compound of formula 14, 2-(2,4,6-Trimethyl-phenyl)-benzooxazol-5-ylamine], in experiment [1], the inhibition at 10000 µg/mL (stock) was 49.3%.

In the case of `COc1cccc(OC)c1-c1nc2ccccc2s1` [Compound of formula 16, 2-(2,6-Dimethoxy-phenyl)-benzothiazole], the inhibition at 10000 µg/mL (stock) in experiment [1] worked out at 47.6%.

On to `Fc1ccc(CNCc2c[nH]c3ccc(F)cc23)c(Cl)c1` [Compound of formula 17, (2-Chloro-4-fluoro-benzyl)-(5-fluoro-1H-indol-3-ylmethyl)-amine], for which the inhibition at 10000 µg/mL (stock) in experiment [1] is 36.5%.

For `COc1ccc2c(c1)CC[C@@H]1[C@@H]2CC[C@]2(C)[C@@H](NCCCCCCN3C(=O)C=CC3=O)CC[C@@H]12` [U73122], the “Laminin-dependent increase of KRS and 67LR in the membrane fraction” value in the experiment on A549 cells is “larger laminin-dependent increase of 67LR than those in the control group”.

`CN[C@@H]1C[C@H]2O[C@@](C)([C@@H]1OC)n1c3ccccc3c3c4c(c5c6ccccc6n2c5c31)C(=O)NC4` [staurosporin]: the “Laminin-dependent increase of KRS and 67LR in the membrane fraction” value with A549 cells is recorded as “larger laminin-dependent increase of 67LR than those in the control group”. The “laminin-induced phosphorylated KRS at threonine and serine” value in the experiment with KRS is listed as “did not have any effect”.

The values above are taken from patent US10130611B2, “Use of benzo-heterocycle derivatives for preventing and treating cancer or for inhibiting cancer metastasis” (MEDICINAL BIOCONVERGENCE RESEARCH CENTER, priority 2009, dated 2018).
